Data on five compounds can be found in ChEMBL document CHEMBL1201862, “PubChem BioAssay data set” (2004).

In general, CC50 refers to the concentration giving 50% cytotoxicity. The term AC50 denotes the concentration giving half of the maximal activity seen.

The source made the active and inactive calls. Where only a bound is given, the exact number is not on record here.

The target of test [1] is T1, E3 ubiquitin-protein ligase XIAP (Homo sapiens, UniProt P98170). The test can be described thus: XIAP antagonists, biochemical, IAP family, fluorescence polarization (AID 1018). The class given is functional.
T1 sequence (P98170 whole entry): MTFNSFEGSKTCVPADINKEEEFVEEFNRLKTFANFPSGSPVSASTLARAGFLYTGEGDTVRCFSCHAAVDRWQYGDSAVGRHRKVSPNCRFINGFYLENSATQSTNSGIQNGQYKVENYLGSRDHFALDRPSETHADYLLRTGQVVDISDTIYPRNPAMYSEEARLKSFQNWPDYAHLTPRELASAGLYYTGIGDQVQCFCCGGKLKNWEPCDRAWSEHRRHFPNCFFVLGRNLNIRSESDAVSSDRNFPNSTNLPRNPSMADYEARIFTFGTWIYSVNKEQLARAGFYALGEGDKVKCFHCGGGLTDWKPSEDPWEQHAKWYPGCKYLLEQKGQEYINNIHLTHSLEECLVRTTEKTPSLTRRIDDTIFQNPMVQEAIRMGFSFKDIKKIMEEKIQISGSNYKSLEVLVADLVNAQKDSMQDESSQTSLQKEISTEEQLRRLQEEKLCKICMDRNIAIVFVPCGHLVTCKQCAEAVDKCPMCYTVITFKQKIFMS
Test [2] deals with T1, E3 ubiquitin-protein ligase XIAP. The test can be described thus: Counter Screen using XIAP-Bir3 for Chemical Antagonists of Bir1/2 domains of IAP-family anti-apoptotic proteins. [Related pubchem assays (depositor defined):AID1018, AID1449, AID1514, AID1638, AID1749, AID1750, AID488957, AID488963].
The target in test [3] is T2, Runt-related transcription factor 1/Core-binding factor subunit beta (Homo sapiens, UniProt Q01196+Q13951). The test can be described thus: inhibitors of RUNX1 Runt–CBFb-SMMHC binding, primary screen, biochemical, FRET, Cerulean-Runt, Venus-CBFb-SMMHC, uHTS (AID 1434).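 Also: partner is the CBFb-SMMHC leukemia fusion protein rather than wild-type CBFb.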 It counts as protein assay.
T2 sequence (Q01196 whole entry, the tested form may be a part): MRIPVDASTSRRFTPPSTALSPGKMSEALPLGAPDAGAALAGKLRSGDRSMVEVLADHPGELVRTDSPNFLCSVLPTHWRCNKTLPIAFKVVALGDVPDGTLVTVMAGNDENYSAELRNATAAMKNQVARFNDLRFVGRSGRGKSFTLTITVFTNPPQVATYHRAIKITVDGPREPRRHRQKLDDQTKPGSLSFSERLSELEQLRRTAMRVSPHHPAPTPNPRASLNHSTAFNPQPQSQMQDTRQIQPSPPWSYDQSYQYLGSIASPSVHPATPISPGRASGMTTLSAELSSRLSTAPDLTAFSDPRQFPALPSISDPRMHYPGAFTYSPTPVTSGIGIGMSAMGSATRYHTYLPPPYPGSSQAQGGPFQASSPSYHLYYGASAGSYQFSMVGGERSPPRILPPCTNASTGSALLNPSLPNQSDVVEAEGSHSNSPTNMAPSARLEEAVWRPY
T2 sequence (Q13951 whole entry, the tested form may be a part): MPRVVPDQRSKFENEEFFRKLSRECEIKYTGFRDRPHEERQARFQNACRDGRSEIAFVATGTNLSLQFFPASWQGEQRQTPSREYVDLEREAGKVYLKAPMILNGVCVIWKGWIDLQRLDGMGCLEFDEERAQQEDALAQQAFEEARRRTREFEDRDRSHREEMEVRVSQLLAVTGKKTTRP
Test [4] has as its target T2, Runt-related transcription factor 1/Core-binding factor subunit beta. Put plainly: inhibitors of RUNX1 Runt–CBFb-SMMHC binding, biochemical, TR-FRET (AID 1438). It counts as protein assay.
In a further test the target is T3, Protein RecA (Mycobacterium tuberculosis, UniProt P9WHJ3).
T3 sequence (P9WHJ3 whole entry): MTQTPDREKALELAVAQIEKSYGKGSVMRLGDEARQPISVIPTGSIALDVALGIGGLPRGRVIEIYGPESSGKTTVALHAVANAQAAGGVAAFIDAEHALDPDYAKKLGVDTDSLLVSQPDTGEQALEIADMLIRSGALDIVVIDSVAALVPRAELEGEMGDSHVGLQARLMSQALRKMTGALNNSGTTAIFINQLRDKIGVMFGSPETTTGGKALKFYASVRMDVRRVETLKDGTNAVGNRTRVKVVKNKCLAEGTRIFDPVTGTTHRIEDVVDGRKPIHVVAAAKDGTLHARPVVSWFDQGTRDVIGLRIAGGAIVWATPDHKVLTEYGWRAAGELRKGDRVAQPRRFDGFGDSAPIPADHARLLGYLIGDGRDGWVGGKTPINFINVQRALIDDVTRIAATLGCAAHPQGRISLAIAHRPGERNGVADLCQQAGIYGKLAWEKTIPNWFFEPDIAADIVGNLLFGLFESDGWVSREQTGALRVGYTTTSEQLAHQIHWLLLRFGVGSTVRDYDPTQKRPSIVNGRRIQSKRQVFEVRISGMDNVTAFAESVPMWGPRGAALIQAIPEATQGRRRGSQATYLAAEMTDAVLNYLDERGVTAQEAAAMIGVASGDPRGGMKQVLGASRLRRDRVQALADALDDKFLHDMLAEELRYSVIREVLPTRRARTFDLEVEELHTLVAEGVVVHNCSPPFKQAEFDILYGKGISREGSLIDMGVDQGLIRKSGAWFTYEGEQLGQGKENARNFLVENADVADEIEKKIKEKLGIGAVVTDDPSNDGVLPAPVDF
Put plainly: Fluorescence Cell-Free Homogeneous Dose Retest to Identify Inhibitors of RecA-Intein Splicing Activity. [Related pubchem assays (depositor defined):AID2097, AID2223, AID489010, AID492950]. It counts as functional.

Test [5] can be described thus: Intein inhibitors as potential Tuberculosis drugs, a cytotoxicity screen. [Related pubchem assays (depositor defined):AID2221, AID2223, AID434968, AID435010, AID449749, AID449750, AID489010]. The class given is functional.
The next test deals with Genome polyprotein (dengue virus type 2, UniProt P29990). Put plainly: Dengue-2 NS5 methyltransferase inhibitors, primary screen, biochemical, confirmation dose response (AID 588689). It counts as functional.
Sequence of Genome polyprotein (P29990 2492-3391 limits assumed): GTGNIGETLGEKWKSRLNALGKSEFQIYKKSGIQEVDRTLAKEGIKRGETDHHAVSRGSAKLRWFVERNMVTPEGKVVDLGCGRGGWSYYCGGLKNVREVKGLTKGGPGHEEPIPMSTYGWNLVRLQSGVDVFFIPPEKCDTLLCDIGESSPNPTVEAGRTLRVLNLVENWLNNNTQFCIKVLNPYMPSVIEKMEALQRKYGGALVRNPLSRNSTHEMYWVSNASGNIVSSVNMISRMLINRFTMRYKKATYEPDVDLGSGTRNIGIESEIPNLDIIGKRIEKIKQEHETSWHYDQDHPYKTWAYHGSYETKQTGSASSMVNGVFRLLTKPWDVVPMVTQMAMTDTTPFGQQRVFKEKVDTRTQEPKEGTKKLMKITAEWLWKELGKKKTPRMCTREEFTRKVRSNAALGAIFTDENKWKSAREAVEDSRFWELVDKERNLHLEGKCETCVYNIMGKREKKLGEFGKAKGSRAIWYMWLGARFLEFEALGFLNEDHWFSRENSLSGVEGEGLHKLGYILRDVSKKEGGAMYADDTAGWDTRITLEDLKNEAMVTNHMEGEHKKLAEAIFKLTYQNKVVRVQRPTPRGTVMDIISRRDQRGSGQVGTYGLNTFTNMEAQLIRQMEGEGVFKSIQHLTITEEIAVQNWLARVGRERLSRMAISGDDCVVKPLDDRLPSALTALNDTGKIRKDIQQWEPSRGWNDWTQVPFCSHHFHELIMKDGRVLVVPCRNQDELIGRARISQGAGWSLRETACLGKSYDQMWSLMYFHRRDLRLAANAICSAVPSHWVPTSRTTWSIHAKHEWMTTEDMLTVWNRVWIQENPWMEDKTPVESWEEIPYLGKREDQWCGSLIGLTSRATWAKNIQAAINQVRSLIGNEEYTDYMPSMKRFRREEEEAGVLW
For test [6], the target named is T4, Replicative DNA helicase DnaB (Mycobacterium tuberculosis, UniProt P9WMR3).
T4 sequence (P9WMR3 whole entry): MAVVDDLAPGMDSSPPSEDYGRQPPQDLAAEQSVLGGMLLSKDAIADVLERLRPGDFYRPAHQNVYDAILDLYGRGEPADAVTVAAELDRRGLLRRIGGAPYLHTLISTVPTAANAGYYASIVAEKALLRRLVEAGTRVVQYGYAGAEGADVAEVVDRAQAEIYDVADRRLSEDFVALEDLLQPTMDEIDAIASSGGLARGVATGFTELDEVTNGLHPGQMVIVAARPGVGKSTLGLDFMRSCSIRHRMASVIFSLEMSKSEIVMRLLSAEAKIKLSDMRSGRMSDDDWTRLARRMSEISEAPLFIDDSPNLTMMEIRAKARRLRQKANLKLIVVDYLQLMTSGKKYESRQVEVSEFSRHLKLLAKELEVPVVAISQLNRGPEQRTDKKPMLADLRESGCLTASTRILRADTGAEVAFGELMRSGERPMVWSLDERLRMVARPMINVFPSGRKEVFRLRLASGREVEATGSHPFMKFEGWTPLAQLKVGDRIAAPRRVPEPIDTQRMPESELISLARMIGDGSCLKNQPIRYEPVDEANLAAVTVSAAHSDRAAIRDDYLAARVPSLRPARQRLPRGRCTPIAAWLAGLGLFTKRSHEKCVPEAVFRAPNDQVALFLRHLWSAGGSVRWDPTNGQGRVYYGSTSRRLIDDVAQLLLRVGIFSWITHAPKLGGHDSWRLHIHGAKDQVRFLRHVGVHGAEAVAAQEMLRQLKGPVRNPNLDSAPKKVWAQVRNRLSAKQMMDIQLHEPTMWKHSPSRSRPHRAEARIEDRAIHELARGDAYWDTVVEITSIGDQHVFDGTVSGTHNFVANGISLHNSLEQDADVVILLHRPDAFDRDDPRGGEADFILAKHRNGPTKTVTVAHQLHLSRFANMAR
Put plainly: DnaB intein splicing inhibitors, dose response, biochemical, cell-free fluorescence (AID 449749). The class given is functional.

The target of test [7] is Potassium voltage-gated channel subfamily KQT member 2 (Rattus norvegicus, UniProt O88943, W236L). The test can be described thus: KCNQ2 channel potentiators, dose response, mechanism study for KCNQ2 potentiator project, cell-based, automated electrophysiology (AID 2603). It counts as functional.
Sequence of Potassium voltage-gated channel subfamily KQT member 2 (O88943 whole entry W236L): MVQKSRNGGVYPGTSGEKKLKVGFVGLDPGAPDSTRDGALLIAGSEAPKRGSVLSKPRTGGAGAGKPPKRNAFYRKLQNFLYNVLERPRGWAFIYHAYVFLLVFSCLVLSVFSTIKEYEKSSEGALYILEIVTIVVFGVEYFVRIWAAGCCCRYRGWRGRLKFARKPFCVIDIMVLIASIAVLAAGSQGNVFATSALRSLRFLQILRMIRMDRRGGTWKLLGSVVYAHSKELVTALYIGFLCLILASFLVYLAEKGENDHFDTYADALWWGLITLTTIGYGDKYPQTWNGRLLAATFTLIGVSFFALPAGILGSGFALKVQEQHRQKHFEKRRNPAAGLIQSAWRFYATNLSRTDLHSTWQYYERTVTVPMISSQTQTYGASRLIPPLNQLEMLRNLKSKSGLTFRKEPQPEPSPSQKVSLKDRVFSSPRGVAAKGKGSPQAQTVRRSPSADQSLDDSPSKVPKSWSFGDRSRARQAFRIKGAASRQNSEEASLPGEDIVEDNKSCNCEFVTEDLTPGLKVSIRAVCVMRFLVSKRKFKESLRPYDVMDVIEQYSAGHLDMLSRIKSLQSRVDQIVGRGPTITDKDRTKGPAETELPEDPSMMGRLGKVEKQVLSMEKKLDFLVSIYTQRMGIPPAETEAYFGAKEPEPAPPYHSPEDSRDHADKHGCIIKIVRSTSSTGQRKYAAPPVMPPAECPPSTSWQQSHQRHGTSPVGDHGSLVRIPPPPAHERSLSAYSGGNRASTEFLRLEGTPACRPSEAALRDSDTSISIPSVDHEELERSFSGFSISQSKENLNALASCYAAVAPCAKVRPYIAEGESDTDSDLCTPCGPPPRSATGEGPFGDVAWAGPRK
The nature of test [8]: Shn3 3'UTR reporter inhibitors, dose response, cell-based, Clone20 osteoblasts, firefly luciferase, cherry-picked (AID 624132).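 Also: firefly luciferase luminescence from reporter carrying the Shn3 3'UTR in osteoblasts.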 It counts as functional.
In the next test the test system is Vero. Put plainly: Vero cell cytotoxicity, cytotoxicity control for flavivirus capping enzyme inhibitors (AID 588742). To be noted: Chlorocebus sabaeus. It counts as functional.
The nature of test [9]: control 3'UTR Renilla luciferase suppression, dose response, counter-screen for Shn3 inhibitor project, cell-based, Clone20-Shn3RL, cherry-picked (AID 624133). The class given is functional. In general terms: Counterscreens check selectivity or assay interference.
The target in test [10] is Hepatocyte nuclear factor 4-alpha (Homo sapiens, UniProt P41235). It counts as functional, cell-based.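 Also: biochemical luminescence-based dose-response counterscreen measuring inhibition of HNF4 dimerization, run alongside a screen for blockers of ABHD5–perilipin-5 interaction; split luciferase complementation of HNF4 fusion proteins in cell lysate measuring dimerization.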
Sequence of Hepatocyte nuclear factor 4-alpha (P41235 whole entry, the tested form may be a part): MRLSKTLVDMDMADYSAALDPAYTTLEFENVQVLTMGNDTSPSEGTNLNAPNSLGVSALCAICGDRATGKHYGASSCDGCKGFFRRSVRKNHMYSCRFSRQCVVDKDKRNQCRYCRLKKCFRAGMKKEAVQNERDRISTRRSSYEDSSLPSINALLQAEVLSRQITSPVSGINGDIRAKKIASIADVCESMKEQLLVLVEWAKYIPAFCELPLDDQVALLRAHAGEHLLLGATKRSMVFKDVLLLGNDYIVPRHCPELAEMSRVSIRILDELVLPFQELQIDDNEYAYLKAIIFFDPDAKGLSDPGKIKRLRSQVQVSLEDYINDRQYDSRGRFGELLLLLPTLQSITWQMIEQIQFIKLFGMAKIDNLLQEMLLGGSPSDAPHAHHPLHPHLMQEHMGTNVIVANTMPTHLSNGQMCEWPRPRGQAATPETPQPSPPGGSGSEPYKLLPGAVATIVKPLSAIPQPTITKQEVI
Test [11] addresses T5, Orexin/Hypocretin receptor type 1 (Homo sapiens, UniProt O43613). Put plainly: Homogeneous Time Resolved Fluorescence (HTRF)-based cell-based high throughput dose response assay for antagonists of the orexin 1 receptor (OX1R; HCRTR1). [Related pubchem assays (depositor defined):AID434989, AID435008, AID463079, AID485270, AID492963, AID492964, AID492965, AID493232, AID504717, AID504718]. It counts as functional. In general terms: Time-resolved FRET reads energy transfer from a long-lived donor to a nearby acceptor.

A short description of test [12]: HEp-2 cell cytotoxicity, dose response, cytotoxicity control for RSV inhibitor project, HTS (AID 2410). The class given is functional. To be noted: human respiratory syncytial virus.
A further test concerns CHO-K1. The test can be described thus: Counterscreen for antagonists of the orexin 1 receptor (OX1R; HCRTR1): Homogeneous time resolved fluorescence (HTRF)-based cell-based dose response assay to identify antagonists of the parental CHO-K1 cell line. [Related pubchem assays (depositor defined):AID434989, AID435008, AID463079, AID485270, AID492963, AID492964, AID492965, AID493232, AID504699, AID504701]. The class given is functional. The note with it: Cricetulus griseus.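 Also: potency for inhibition of ATP-stimulated IP1 production as antagonists.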

Test [13] concerns the target T5, Orexin/Hypocretin receptor type 1. Put plainly: Fluorescence-based cell-based high throughput dose response assay for antagonists of the orexin 1 receptor (OX1R; HCRTR1). [Related pubchem assays (depositor defined):AID434989, AID435008, AID463079, AID485270, AID492963, AID492964, AID492965, AID493232, AID504717, AID504718]. The class given is functional.
Test [14] in a line: Counterscreen for antagonists of the orexin 1 receptor (OX1R; HCRTR1): Fluorescence-based cell-based high throughput dose response assay to identify antagonists of the parental CHO cell line. [Related pubchem assays (depositor defined):AID434989, AID435008, AID463079, AID485270, AID492963, AID492964, AID492965, AID493232, AID504699, AID504701]. The class given is functional.

Test [15] in a line: CRF-BP/CRF-R2 complex antagonists, dose response, cell-based, uHTS hits, 384-well (AID 651639). It counts as functional, Homo sapiens. To be noted: read-out: IC50_Mean.
Test [16] addresses Intestinal-type alkaline phosphatase (Homo sapiens, UniProt P09923). The test can be described thus: human intestinal alkaline phosphatase activators, dose response, biochemical, luminescence, uHTS hits (AID 463120). The class given is functional.
The target in test [17] is T6, Corticotropin-releasing factor receptor 2/Corticotropin-releasing factor-binding protein (Homo sapiens, UniProt P24387+Q13324).
T6 sequence (Q13324 whole entry): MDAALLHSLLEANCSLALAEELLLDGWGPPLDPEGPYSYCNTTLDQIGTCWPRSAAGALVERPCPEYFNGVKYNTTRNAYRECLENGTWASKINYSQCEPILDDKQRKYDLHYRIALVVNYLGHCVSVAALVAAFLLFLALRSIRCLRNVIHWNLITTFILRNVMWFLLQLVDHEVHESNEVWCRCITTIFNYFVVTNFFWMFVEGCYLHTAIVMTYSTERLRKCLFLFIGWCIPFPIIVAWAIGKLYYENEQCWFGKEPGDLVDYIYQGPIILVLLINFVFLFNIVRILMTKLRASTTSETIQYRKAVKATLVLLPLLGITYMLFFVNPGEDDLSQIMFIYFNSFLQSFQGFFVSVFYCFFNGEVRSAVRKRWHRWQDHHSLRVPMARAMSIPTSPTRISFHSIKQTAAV
T6 sequence (P24387 whole entry): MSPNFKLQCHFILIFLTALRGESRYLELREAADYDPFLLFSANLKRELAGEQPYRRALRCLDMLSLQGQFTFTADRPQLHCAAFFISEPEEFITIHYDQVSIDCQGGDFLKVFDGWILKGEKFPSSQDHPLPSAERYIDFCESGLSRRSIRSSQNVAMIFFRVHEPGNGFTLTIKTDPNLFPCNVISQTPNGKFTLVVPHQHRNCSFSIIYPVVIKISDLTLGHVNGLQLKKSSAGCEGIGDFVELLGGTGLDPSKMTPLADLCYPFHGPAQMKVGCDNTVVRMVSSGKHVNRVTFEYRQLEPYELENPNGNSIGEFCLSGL
The test can be described thus: activators of CRF receptor 2 with binding protein – uHTS hits, confirmation (AID 602473). It counts as functional. To be noted: read-out: EC50_Mean.

Test [18] concerns the target T6, Corticotropin-releasing factor receptor 2/Corticotropin-releasing factor-binding protein. Put plainly: Dose Response confirmation of uHTS hits for small molecule antagonists of the CRF-binding protein and CRF-R2 receptor complex. To be noted: read-out: IC50_Mean. The class given is functional.

T5 sequence (O43613 whole entry): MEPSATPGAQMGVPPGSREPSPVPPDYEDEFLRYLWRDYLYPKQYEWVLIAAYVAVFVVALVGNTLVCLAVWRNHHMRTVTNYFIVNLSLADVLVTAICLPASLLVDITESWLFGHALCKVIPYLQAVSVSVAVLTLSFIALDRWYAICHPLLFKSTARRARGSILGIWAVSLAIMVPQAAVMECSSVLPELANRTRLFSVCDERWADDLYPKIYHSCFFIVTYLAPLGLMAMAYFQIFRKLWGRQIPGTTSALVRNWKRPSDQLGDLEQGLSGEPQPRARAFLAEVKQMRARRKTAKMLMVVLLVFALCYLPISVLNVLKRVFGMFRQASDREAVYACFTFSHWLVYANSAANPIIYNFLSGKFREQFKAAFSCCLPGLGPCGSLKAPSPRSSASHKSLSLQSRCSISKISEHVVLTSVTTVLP
Sequence of Intestinal-type alkaline phosphatase (P09923 whole entry): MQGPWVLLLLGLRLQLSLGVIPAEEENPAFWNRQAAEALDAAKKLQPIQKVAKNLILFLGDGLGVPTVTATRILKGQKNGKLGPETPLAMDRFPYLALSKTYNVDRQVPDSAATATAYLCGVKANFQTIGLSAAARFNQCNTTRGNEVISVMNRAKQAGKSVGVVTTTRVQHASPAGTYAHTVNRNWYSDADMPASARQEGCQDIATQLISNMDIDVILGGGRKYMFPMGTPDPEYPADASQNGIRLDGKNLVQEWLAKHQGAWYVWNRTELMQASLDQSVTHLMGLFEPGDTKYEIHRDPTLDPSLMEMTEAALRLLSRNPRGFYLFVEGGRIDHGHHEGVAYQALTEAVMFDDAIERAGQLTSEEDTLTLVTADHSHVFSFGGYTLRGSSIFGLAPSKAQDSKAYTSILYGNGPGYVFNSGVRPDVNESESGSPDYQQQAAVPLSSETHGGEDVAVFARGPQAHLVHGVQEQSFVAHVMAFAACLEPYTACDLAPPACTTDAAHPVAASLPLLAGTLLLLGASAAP

`COc1ccc(NC(=O)N2CCC(c3nc(-c4cccs4)no3)CC2)cc1`: the IC50 in test [1] is > 100 µM (not active); in [2], > 100 µM (inactive).
For the compound `CN1c2ccsc2C(O)=C(C(S)=Nc2ccc(F)c(Cl)c2)S1(=O)=O`, the IC50 in test [3] and in test [4] was > 100 µM (inactive) throughout.
For the compound `CSc1nnc(NC(=O)c2nc(S(=O)(=O)Cc3cccc(C)c3)ncc2Cl)s1`, the EC50 at Protein RecA is 3.16 µM (active); in test [7], 1.83 µM (active). The CC50 is 26.7 µM (active) in [5] and 24.9 µM (active) in the test with Vero. The IC50 at Genome polyprotein is 44.5 µM (active); in test [10], 4.45 µM (active). The AC50 in test [6] was 3.49 µM (active); in test [8], 4.03 µM (active); in [9], 11.5 µM (active).
Turning to `Cc1cc(C)cc(NC(=O)C2CCCN2S(=O)(=O)c2cccc3cccnc23)c1` (configuration not stated), the IC50 was 0.244 µM (active) in [11], > 66.2 µM (inactive) in the test with CHO-K1, 3.03 µM (active) in [13] and > 49.7 µM (inactive) in test [14]. In addition, the CC50 in [12] was 32.9 µM (active).
As to `O=C(NNc1ncnc2c1cnn2-c1ccc(F)cc1)c1ccco1`, the IC50 is > 20 µM (inactive) in test [15] and < 0.368 µM (active) in [18]. In addition, the EC50 is 7.17 µM (active) in [16] and > 53 µM (inactive) in [17].
